Results reported in patent publication US20230348483A1, “PREPARATION METHOD FOR (S)-2-AMINO-3-(4-(2,3-DIMETHYLPYRIDIN-4-YL)PHENYL)METHYL PROPIONATE DIACID SALT” (Hangzhou Zhongmei Huadong Pharmaceutical Co., Ltd., priority 2020, published 2023).

Experiments:
[1] = Stability test of salt forms at temperature 40° C. and humidity 75% (HPLC chemical purity, physical properties); format: physicochemical; conditions: for Appearance / Hygroscopicity / Purity (%): 40° C./75% placement for 1 day; for Purity (%) / Initial purity: chemical purity by HPLC; for Initial purity: before placement
Method: Compare the properties of the desired salts of compound V, includes but not limits to as herein oxalate or phosphate, to hydrochloride. Conduct the stability test under the condition of temperature 40° C. and humidity 75%, measure the chemical purity by HPLC and observe the physical properties.

[2] = Hygroscopicity and deterioration of compound IV as found by the researchers; format: physicochemical; conditions: solid, storage and transport

Appearance [1]	Hygroscopicity [1]	Purity (%) [1] [%]	Initial purity [1]	Deterioration (storage stability) [2]	Hygroscopicity [2]	SMILES
White powder	Almost none	99.0	99.1			COC(=O)[C@@H](N)Cc1ccc(-c2ccnc(C)c2C)cc1.O=C(O)C(=O)O.O=C(O)C(=O)O [Oxalate, methyl (S)-2-amino-3-[4-(2,3-dimethylpyridin-4-yl)-phenyl]-propionate diacid salt]
White to light	Slight	96.1	98.5			COC(=O)[C@@H](N)Cc1ccc(-c2ccnc(C)c2C)cc1.O=C(O)C(=O)O.O=C(O)C(=O)O [Phosphate, methyl (S)-2-amino-3-[4-(2,3-dimethylpyridin-4-yl)-phenyl]-propionate diacid salt]
Yellow solid	Strong	87.5	95.1	easily to be deteriorated	highly hygroscopic	COC(=O)[C@@H](N)Cc1ccc(-c2ccnc(C)c2C)cc1.Cl.Cl [Hydrochloride, methyl (S)-2-amino-3-[4-(2,3-dimethylpyridin-4-yl)-phenyl]-propionate dihydrochloride]
